Results reported in PubChem BioAssay AID248 (DTP/NCI, 2004).
Several values for one entry are separate records, joined by “and”; a condition that tells them apart may be missing. Equal values may be shown once. Toxic doses and inconclusive results are not listed.

Tested on: L1210 leukemia ip in BDF1 mice, survival T/C
Assay: NCI In Vivo Anticancer Drug Screen. Data for tumor model L1210 Leukemia (intraperitoneal) in B6D2F1 (BDF1) mice
Settings: endpoint: mean survival time, higher = longer survival
How it was run: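 Survival endpoint. Drug-treated group vs vehicle group, expressed as T divided by C. Tumor passaged by transplantation.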

CC(=O)OC1CCC2(C)C(=CCC3C2CCC2(C)C3CC3OC4(CCC(C)CO4)C(C)C32)C1 (stereo not drawn)
T/C (dose: 100.0 mg/kg/injection, schedule: Q01DX009 (ip), vehicle: Klucel (hydroxypropylcellulose) (HPC)): 98 % of control
T/C (dose: 200.0 mg/kg/injection, schedule: Q01DX009 (ip), vehicle: Klucel (hydroxypropylcellulose) (HPC)): 96 % of control
T/C (dose: 400.0 mg/kg/injection, schedule: Q01DX009 (ip), vehicle: Klucel (hydroxypropylcellulose) (HPC)): 95 % of control

NC(CSCCc1ccccn1)C(=O)O (stereo not drawn)
T/C (dose: 100.0 mg/kg/injection, schedule: Q01DX009 (ip), vehicle: saline): 107 % of control
T/C (dose: 100.0 mg/kg/injection, schedule: Q04DX003 (ip), vehicle: saline): 101 % of control
T/C (dose: 200.0 mg/kg/injection, schedule: Q01DX009 (ip), vehicle: saline): 104 % of control
T/C (dose: 200.0 mg/kg/injection, schedule: Q04DX003 (ip), vehicle: saline): 104 % of control
T/C (dose: 400.0 mg/kg/injection, schedule: Q01DX009 (ip), vehicle: saline): 105 % of control
T/C (dose: 400.0 mg/kg/injection, schedule: Q04DX003 (ip), vehicle: saline): 94 % of control

C(=N\NC1=NCCN1)/c1ccccc1
T/C (dose: 2.5 mg/kg/injection, schedule: Q01DX009 (ip), vehicle: saline): 101 % of control
T/C (dose: 5.0 mg/kg/injection, schedule: Q01DX009 (ip), vehicle: saline): 97 % of control
T/C (dose: 5.0 mg/kg/injection, schedule: Q04DX003 (ip), vehicle: saline): 97 % of control
T/C (dose: 10.0 mg/kg/injection, schedule: Q01DX001 (ip), vehicle: saline): 105 % of control
T/C (dose: 10.0 mg/kg/injection, schedule: Q01DX009 (ip), vehicle: saline): 93 % of control
T/C (dose: 10.0 mg/kg/injection, schedule: Q04DX003 (ip), vehicle: saline): 94 % of control
T/C (dose: 20.0 mg/kg/injection, schedule: Q01DX001 (ip), vehicle: saline): 104 % of control
T/C (dose: 20.0 mg/kg/injection, schedule: Q04DX003 (ip), vehicle: saline): 97 % of control

CCCCCCCC(=O)N(CCO)CCO
T/C (dose: 100.0 mg/kg/injection, schedule: Q04DX002 (ip), vehicle: other): 96 % of control
T/C (dose: 200.0 mg/kg/injection, schedule: Q04DX002 (ip), vehicle: other): 101 % of control
T/C (dose: 400.0 mg/kg/injection, schedule: Q04DX002 (ip), vehicle: other): 96 % of control

CCCCSC(C)(C)CC
T/C (dose: 50.0 mg/kg/injection, schedule: Q01DX001 (ip), vehicle: saline): 98 % of control
T/C (dose: 100.0 mg/kg/injection, schedule: Q01DX001 (ip), vehicle: saline): 93 % of control
T/C (dose: 200.0 mg/kg/injection, schedule: Q01DX001 (ip), vehicle: saline): 107 % of control
T/C (dose: 400.0 mg/kg/injection, schedule: Q01DX001 (ip), vehicle: saline): 104 % of control

CSc1nncc(-c2cnnc(SC)n2)n1
T/C (dose: 100.0 mg/kg/injection, schedule: Q04DX002 (ip), vehicle: Klucel (hydroxypropylcellulose) (HPC)): 108 % of control
T/C (dose: 200.0 mg/kg/injection, schedule: Q04DX002 (ip), vehicle: Klucel (hydroxypropylcellulose) (HPC)): 94 % of control

CN(CCN(C)P(=O)(N1CC1)N1CC1)P(=O)(N1CC1)N1CC1
T/C (dose: 0.62 mg/kg/injection, schedule: Q01DX Z (ip), vehicle: saline): 87 % of control
T/C (dose: 1.25 mg/kg/injection, schedule: Q01DX Z (ip), vehicle: saline): 90 % of control
T/C (dose: 2.5 mg/kg/injection, schedule: Q01DX Z (ip), vehicle: saline): 92 % of control
T/C (dose: 5.0 mg/kg/injection, schedule: Q01DX Z (ip), vehicle: saline): 108 % of control
T/C (dose: 20.0 mg/kg/injection, schedule: Q01DX Z (ip), vehicle: saline): 156 % of control

C/C(=N/N=C(N)N)C(=O)O
T/C (dose: 15.0 mg/kg/injection, schedule: Q01DX Z (ip), vehicle: carboxymethylcellulose (CMC)): 101 % of control
T/C (dose: 30.0 mg/kg/injection, schedule: Q01DX Z (ip), vehicle: carboxymethylcellulose (CMC)): 97 % of control
T/C (dose: 60.0 mg/kg/injection, schedule: Q01DX Z (ip), vehicle: carboxymethylcellulose (CMC)): 100 % of control and 101 % of control
T/C (dose: 120.0 mg/kg/injection, schedule: Q01DX Z (ip), vehicle: carboxymethylcellulose (CMC)): 101 % of control and 103 % of control
T/C (dose: 240.0 mg/kg/injection, schedule: Q01DX Z (ip), vehicle: carboxymethylcellulose (CMC)): 112 % of control
T/C (dose: 480.0 mg/kg/injection, schedule: Q01DX Z (ip), vehicle: carboxymethylcellulose (CMC)): 98 % of control

CCCCC(C)(O)CCC (stereo not drawn)
T/C (dose: 50.0 mg/kg/injection, schedule: Q01DX001 (ip), vehicle: carboxymethylcellulose (CMC)): 104 % of control
T/C (dose: 100.0 mg/kg/injection, schedule: Q01DX001 (ip), vehicle: carboxymethylcellulose (CMC)): 101 % of control
T/C (dose: 200.0 mg/kg/injection, schedule: Q01DX001 (ip), vehicle: carboxymethylcellulose (CMC)): 98 % of control
T/C (dose: 400.0 mg/kg/injection, schedule: Q01DX001 (ip), vehicle: carboxymethylcellulose (CMC)): 89 % of control

O=P1(c2ccccc2)C=C(Cl)CC1 (stereo not drawn)
T/C (dose: 75.0 mg/kg/injection, schedule: Q01DX001 (ip), vehicle: saline): 96 % of control
T/C (dose: 150.0 mg/kg/injection, schedule: Q01DX001 (ip), vehicle: saline): 107 % of control
